Experimental data from patent publication US12162879B2, “Pyridopyrimidine derivative, preparation method therefor and medical use thereof” (Jiangsu Hengrui Medicine Co., Ltd., priority 2018, dated 2024).

Legend:
Format in all cases: cell-based
human TLR8 = human TLR8 (Homo sapiens (Human), UniProt Q9NR97); test: Agonist activity on human TLR8 in HEK-Blue hTLR8 stably transfected cells; conditions: 16 hours, OD 620 nm
Description: The agonist effect of the compounds of the present invention on hTLR8 expressed by the HEK-Blue™ hTLR8 stably transfected cells was determined by the following experimental method.
(§1) • 1. DMEM(Gibco, 10564-029); • 2. Fetal bovine serum (GIBCO, 10099); • 3. Trypan blue solution (Sigma, T8154-100 ML); • 4. Flexstation 3 multi-function microplate reader (Molecular Devices); • 5. HEK-Blue™ hTLR8 cell line (InvivoGen, hkb-hTLR8), or HEK-Blue™ hTLR7 cell line (InvivoGen, hkb-hTLR7); • 6. HEK-Blue detection reagent (InvivoGen, hb-det3); and • 7. Phosphate buffer solution (PBS) pH 7.4 (Shanghai Basalmedia Technologies Co., Ltd., B320). II. Experimental Procedures a. Determination of Agonist Activity on Human TLR8
(§2) A bag of HEK-Blue detection dry powder was dissolved in 50 ml of water free of endotoxin, and the solution was then placed in an incubator at 37° C. for 10 minutes followed by sterile filtration to prepare a HEK-Blue detection medium. The compound was firstly formulated into a 20 mM stock solution, then diluted with pure DMSO to a maximum concentration of 6×10^6 nM, and a total of 10 points were obtained by a 3-fold gradient dilution. The above formulated compound was firstly diluted 20-fold with the medium, then 20 μl of the diluted compound was added to each well.
(§3) The supernate was removed from the HEK-Blue™ hTLR8 cells, to which 2-5 ml of pre-warmed PBS was then added. The cells were placed in an incubator for 1-2 minutes, gently pipetted, and counted by trypan blue staining. The cells were re-suspended in the HEK-Blue detection medium to adjust the concentration to 2.2×10^5 cells/ml. 180 μl of cells was added to the above 96-well plate comprising 20 μl of the compound, and incubated at 37° C. for 16 hours.
(§4) The corresponding OD values were obtained by a microplate reader at a wavelength of 620 nm, and the EC50 values of the compounds were calculated by Graphpad Prism.

[1] = system: peripheral blood mononuclear cells (PBMC); test: Stimulation of IL12 secretion from PBMC (ELISA); conditions: minimum effective concentration, human PBMC, 24 hours
Description: (§5) The stimulating effect of the compounds of the present invention on the ability of secretion of IL12 and IFN γ from PBMC was determined by the following experimental method.
(§6) • 1. RMPI 1640 (Invitrogen, 11875); • 2. FBS (Gibco, 10099-141); • 3. Ficoll-Paque PREMIUM (GE, 17-5442-02); • 4. Trypan blue solution (Sigma, T8154-100 ML); • 5. SepMate™-50 (Stemcell, 15460); • 6. Bright-LineIM blood cell counter (Sigma, Z359629-1EA); • 7. 96-well cell culture plate (Corning, 3599); • 8. 96-well v-bottom plate (Corning, 3894); • 9. Human IL-12 ELISA kit (Neobioscience Technology Co., EHC152.96); • 10. Human IFN γ kit (cisbio, 62HIFNGPEG); and • 11. PHERAStar multi-function microplate reader (BMG, PHERAStar). II. Experimental Procedures
(§7) The compound was diluted with pure DMSO to a maximum concentration of 5 mM, and a total of 9 points were obtained by a 4-fold gradient dilution. 4 μl of the compound solution was then added to 196 μl of RMPI 1640 medium containing 10% FBS and mixed well. 50 μl of the mixture was taken and added to a 96-well cell culture plate.
(§8) All reagents were equilibrated to room temperature. 60 ml of blood from a healthy human and the same volume of PBS (containing 2% FBS) were added to a 250 ml culture flask, gently pipetted, mixed well and diluted. 15 ml of lymphocyte separation solution Ficoll-Paque PREMIUM was added to a 50 ml PBMC centrifuge tube SepMate™-50, followed by the addition of 30 ml of the above diluted blood. The mixture was centrifuged at 1200 g for 10 minutes at room temperature. The supernatant was taken and then centrifuged at 300 g for 8 minutes. The cells were re-suspended in the RMPI 1640 medium containing 10% FBS and counted, and the number of PBMCs was adjusted to 3.33×10^6 cells/ml. 150 μl of the cell solution was added to the plate containing the compounds, and incubated in an incubator at 37° C., 5.0% CO2 for 24 hours. The cell culture plate was placed in a centrifuge, and centrifuged at 1200 rpm for 10 minutes at room temperature. 150 μl of the supernatant was taken from each well.
The reagents in the Human IL-12 ELISA kit were equilibrated to room temperature. According to the kit's instruction, the highest concentration of the standard is 2000 pg/ml, and a total of 8 points were obtained by a 2-fold gradient dilution. The sample to be tested was diluted 20 folds. The solution was then added to a pre-coated plate at 100 μl/well. The plate was incubated at 37° C. for 90 minutes and rinsed. The […] was added at 100 μl/well, and the plate was incubated at 37° C. for 60 minutes and rinsed. HRP binding enzyme was added at 100 μl/well, and the plate was incubated at 37° C. for 30 minutes and rinsed. TMB was added, and the plate was incubated at room temperature for 5 minutes. Finally, the stop solution was added to stop the reaction, and the absorbance at 450 nm was read by the microplate reader.
(§9) The concentration of the compound that can stimulate PBMC to produce […] that is 3 times higher than the average value of the group without the compound (SD of the group without the compound) was defined as the minimum effective concentration (MEC) value of the compound.

[2] = system: peripheral blood mononuclear cells (PBMC); test: Stimulation of IFNγ secretion from PBMC; conditions: minimum effective concentration, human PBMC, 24 hours
Description: as §5, §6, §7, §8
The reagents in the Human IFN γ test kit were equilibrated to room temperature. The standard and detection antibody were prepared according to the kit's instruction under dark conditions. 16 μl of the supernatant obtained by centrifugation was added to each well, and 4 μl of freshly prepared mixed detection antibody was added to each well. The solution was mixed well by shaking, and incubated overnight in the dark at room temperature. The plate was read by the PHERAStar multi-function microplate reader.
as §9

human TLR7 = human TLR7 (Homo sapiens (Human), UniProt Q9NYK1); test: Agonist activity on human TLR7 in HEK-Blue hTLR7 cells; conditions: 16 hours, OD 620 nm
Description: as §1, §2
as §3, with “hTLR7” for “hTLR8”
as §4

Chain of human TLR8 (Q9NR97 27-1041): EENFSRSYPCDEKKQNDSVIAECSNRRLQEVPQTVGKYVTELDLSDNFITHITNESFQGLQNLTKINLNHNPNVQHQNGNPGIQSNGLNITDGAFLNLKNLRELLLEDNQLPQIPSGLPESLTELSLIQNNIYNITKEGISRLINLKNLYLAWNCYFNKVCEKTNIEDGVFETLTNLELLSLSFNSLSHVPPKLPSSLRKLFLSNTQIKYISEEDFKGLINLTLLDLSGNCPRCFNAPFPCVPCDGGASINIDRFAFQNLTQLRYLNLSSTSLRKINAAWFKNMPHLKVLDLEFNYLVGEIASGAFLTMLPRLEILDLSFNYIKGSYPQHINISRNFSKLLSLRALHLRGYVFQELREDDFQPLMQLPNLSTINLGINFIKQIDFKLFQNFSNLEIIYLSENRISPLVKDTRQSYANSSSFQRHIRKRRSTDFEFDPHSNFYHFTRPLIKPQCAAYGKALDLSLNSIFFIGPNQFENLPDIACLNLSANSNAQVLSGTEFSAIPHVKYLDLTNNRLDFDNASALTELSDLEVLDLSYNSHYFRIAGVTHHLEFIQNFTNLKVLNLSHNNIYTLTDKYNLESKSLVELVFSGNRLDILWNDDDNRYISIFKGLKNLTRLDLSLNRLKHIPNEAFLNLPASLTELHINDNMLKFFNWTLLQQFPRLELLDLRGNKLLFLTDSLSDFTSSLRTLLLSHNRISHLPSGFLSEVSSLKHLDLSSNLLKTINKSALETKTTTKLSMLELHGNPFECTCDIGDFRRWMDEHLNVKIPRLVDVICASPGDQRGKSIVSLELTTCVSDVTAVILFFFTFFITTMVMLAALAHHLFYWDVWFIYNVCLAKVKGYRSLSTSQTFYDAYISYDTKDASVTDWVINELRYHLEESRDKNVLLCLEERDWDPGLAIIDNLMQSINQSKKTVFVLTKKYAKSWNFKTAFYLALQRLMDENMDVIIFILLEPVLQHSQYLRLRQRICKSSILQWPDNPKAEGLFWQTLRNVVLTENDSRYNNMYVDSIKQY
Chain of human TLR7 (Q9NYK1 27-1049): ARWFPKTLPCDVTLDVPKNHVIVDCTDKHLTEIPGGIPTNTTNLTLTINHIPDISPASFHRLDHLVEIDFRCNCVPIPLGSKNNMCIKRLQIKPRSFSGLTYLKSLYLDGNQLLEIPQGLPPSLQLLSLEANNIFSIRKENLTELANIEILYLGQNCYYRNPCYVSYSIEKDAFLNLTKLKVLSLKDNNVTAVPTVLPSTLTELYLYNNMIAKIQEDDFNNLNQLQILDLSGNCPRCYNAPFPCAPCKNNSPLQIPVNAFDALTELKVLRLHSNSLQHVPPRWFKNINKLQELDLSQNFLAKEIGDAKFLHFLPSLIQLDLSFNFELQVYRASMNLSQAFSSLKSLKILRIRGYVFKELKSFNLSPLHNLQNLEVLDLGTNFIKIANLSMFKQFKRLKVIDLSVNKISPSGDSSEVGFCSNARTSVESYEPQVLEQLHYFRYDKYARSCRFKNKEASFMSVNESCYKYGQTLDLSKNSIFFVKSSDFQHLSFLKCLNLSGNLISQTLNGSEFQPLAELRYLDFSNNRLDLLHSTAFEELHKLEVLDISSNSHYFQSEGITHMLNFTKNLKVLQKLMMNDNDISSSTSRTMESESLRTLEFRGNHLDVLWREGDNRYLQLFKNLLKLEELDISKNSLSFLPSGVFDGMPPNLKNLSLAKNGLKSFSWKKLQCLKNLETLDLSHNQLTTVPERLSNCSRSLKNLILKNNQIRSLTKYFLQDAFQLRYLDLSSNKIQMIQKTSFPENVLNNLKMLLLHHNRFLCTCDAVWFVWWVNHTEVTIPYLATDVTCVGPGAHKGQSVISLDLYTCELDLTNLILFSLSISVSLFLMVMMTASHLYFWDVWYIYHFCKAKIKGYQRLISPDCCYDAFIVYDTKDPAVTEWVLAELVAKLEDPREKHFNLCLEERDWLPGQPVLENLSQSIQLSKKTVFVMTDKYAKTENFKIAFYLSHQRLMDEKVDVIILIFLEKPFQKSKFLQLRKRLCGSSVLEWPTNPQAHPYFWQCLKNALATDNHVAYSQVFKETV

Structure (SMILES) | EC50 (human TLR8) | Emax (human TLR8) | IL12 MEC [1] | IFNγ MEC [2] | EC50 (human TLR7) | Emax (human TLR7)
CCCCC(C)(CO)Nc1nc(N)nc2cc(-c3ccc(CN4CCCC4)nc3)cnc12 (centres unmarked) [Example 1, 2-((2-Amino-7-(6-(pyrrolidin-1-ylmethyl)pyridin-3-yl)pyrido[3,2-d]pyrimidin-4-yl)amino)-2-methylhexan-1-ol] | 130 nM | 97% |  |  |  | 
CCCCC(C)(CO)Nc1nc(N)nc2cc(-c3ccc(C4CCN(C)CC4)nc3)cnc12 (centres unmarked) [Example 3, 2-((2-Amino-7-(6-(1-methylpiperidin-4-yl)pyridin-3-yl)pyrido[3,2-d]pyrimidin-4-yl)amino)-2-methylhexan-1-ol] | 100 nM | 104% | 15 nM | 27 nM |  | 
CCCC[C@](C)(CO)Nc1nc(N)nc2cc(-c3cnc(CN4CCN(C)CC4)nc3)cnc12 [Example 7, (R)-2-((2-Amino-7-(2-((4-methylpiperazin-1-yl)methyl)pyrimidin-5-yl)pyrido[3,2-d]pyrimidin-4-yl)amino)-2-methylhexan-1-ol] | 80 nM | 116% |  |  |  | 
CCCCC(C)(CO)Nc1nc(N)nc2cc(-c3ccc(CN4CCNCC4)nc3)cnc12 (centres unmarked) [Example 9, 2-((2-Amino-7-(6-(piperazin-1-ylmethyl)pyridin-3-yl)pyrido[3,2-d]pyrimidin-4-yl)amino)-2-methylhexan-1-ol] | 150 nM | 103% | 24 nM | 94 nM | > 30 µM | 5%
